How the values were obtained:
pigweed [1] = assay: Test A postemergence; type: in vivo, Amaranthus retroflexus; conditions: 0 to 100 scale where 0 is no effect and 100 is complete control; for Pigweed plant response rating: 125 g ai/ha; for Plant response rating, Pigweed: 500 g ai/ha
Method in brief: (§1)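 Injury scores run from 0, no effect, to 100, complete control, judged by eye against untreated plants roughly 10 days after treatment. Chemicals carried a surfactant in a non-phytotoxic solvent and went onto loam–sand soil preemergence or onto one- to two-leaf seedlings postemergence.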

barnyardgrass [2] = assay: Test C postemergence; type: in vivo, Echinochloa crus-galli; conditions: for Barnyardgrass plant response rating: 31 g ai/ha, 13 to 15 days; for Barnyardgrass plant response rating / Plant response rating, Barnyardgrass: scale 0 to 100 (0 no effect, 100 complete control)
Method in brief: (§2)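 Greenhouse herbicide screen. Pre: seeded loam/sand, sprayed at planting. Post: 1–4 leaf plants (2–18 cm) in peat-based mix. Formulation: solvent mixture + surfactant, non-phytotoxic. Readout: visual % control vs untreated, 13–15 d; dash = not tested.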

blackgrass = assay: Test C postemergence; type: in vivo, Alopecurus myosuroides; conditions: for Plant response rating (0 to 100), Blackgrass: 16 g ai/ha, 0 is no effect, 100 is complete control; for Blackgrass plant response rating: 31 g ai/ha; for Blackgrass plant response rating / Plant response rating, Blackgrass: scale 0 to 100 (0 no effect, 100 complete control)
Method in brief: as §2

galium = assay: Test C postemergence; type: in vivo, Galium aparine; conditions: for Plant response rating (0 to 100), Galium: 16 g ai/ha, 0 is no effect, 100 is complete control; for Galium plant response rating: 31 g ai/ha; for Galium plant response rating / Plant response rating, Galium: scale 0 to 100 (0 no effect, 100 complete control)
Method in brief: as §2

johnsongrass = assay: Test C postemergence; type: in vivo, Sorghum halepense; conditions: for Plant response rating (0 to 100), Johnsongrass: 16 g ai/ha, 0 is no effect, 100 is complete control; for Johnsongrass plant response rating: 31 g ai/ha; for Johnsongrass plant response rating / Plant response rating, Johnsongrass: scale 0 to 100 (0 no effect, 100 complete control)
Method in brief: as §2

oilseed rape = assay: Test C postemergence; type: in vivo, Brassica napus; conditions: for Plant response rating (0 to 100), Oilseed Rape: 16 g ai/ha, 0 is no effect, 100 is complete control; for Oilseed Rape plant response rating: 31 g ai/ha; for Oilseed Rape plant response rating / Plant response rating, Oilseed Rape: scale 0 to 100 (0 no effect, 100 complete control)
Method in brief: as §2

wild oat = assay: Test C postemergence; type: in vivo, Avena fatua; conditions: for Plant response rating (0 to 100), Oat, Wild: 16 g ai/ha, 0 is no effect, 100 is complete control; for Oat, Wild plant response rating: 31 g ai/ha; for Oat, Wild plant response rating / Plant response rating, Oat, Wild: scale 0 to 100 (0 no effect, 100 complete control)
Method in brief: as §2

lambsquarters = assay: Test C postemergence; type: in vivo, Chenopodium album; conditions: for Plant response rating (0 to 100), Lambsquarters: 16 g ai/ha, 0 is no effect, 100 is complete control; for Lambsquarters plant response rating: 31 g ai/ha; for Lambsquarters plant response rating / Plant response rating, Lambsquarters: scale 0 to 100 (0 no effect, 100 complete control)
Method in brief: as §2

waterhemp = assay: Test C postemergence; type: in vivo, Amaranthus rudis; conditions: for Plant response rating (0 to 100), Waterhemp: 16 g ai/ha, 0 is no effect, 100 is complete control; for Waterhemp plant response rating: 31 g ai/ha; for Waterhemp plant response rating / Plant response rating, Waterhemp: scale 0 to 100 (0 no effect, 100 complete control)
Method in brief: as §2

giant foxtail = assay: Test A preemergence; type: in vivo, Setaria faberii; conditions: for Foxtail, Giant plant response rating (0 to 100 scale): 125 g ai/ha; for Foxtail, Giant plant response rating: 500 g ai/ha, 0 to 100 scale where 0 is no effect and 100 is complete control
Method in brief: as §1

barnyardgrass [3] = assay: Test A preemergence; type: in vivo, Echinochloa crus-galli; conditions: for Barnyardgrass plant response rating (0 to 100 scale, 0 is no effect, 100 is complete control): 125 g ai/ha; for Barnyardgrass plant response rating: 500 g ai/ha, 0 to 100 scale where 0 is no effect and 100 is complete control
Method in brief: as §1

wheat = assay: Test A preemergence; type: in vivo, Triticum aestivum; conditions: for Wheat plant response rating (0 to 100 scale): 125 g ai/ha; for Wheat plant response rating: 500 g ai/ha, 0 to 100 scale where 0 is no effect and 100 is complete control
Method in brief: as §1

velvetleaf = assay: Test A postemergence; type: in vivo, Abutilon theophrasti; conditions: 0 to 100 scale where 0 is no effect and 100 is complete control; for Velvetleaf plant response rating: 125 g ai/ha; for Plant response rating, Velvetleaf: 500 g ai/ha
Method in brief: as §1

large (Lg) crabgrass = assay: Test C postemergence; type: in vivo, Digitaria sanguinalis; conditions: for Plant response rating (0 to 100), Crabgrass, Large: 16 g ai/ha, 0 is no effect, 100 is complete control; for Crabgrass, Large plant response rating: 31 g ai/ha; for Crabgrass, Large plant response rating / Plant response rating, Crabgrass, Large: scale 0 to 100 (0 no effect, 100 complete control)
Method in brief: as §2

pigweed [4] = assay: Test A preemergence; type: in vivo, Amaranthus retroflexus; conditions: for Pigweed plant response rating (0 to 100 scale): 125 g ai/ha; for Pigweed plant response rating: 500 g ai/ha, 0 to 100 scale where 0 is no effect and 100 is complete control
Method in brief: as §1

[5] = 125 g ai/ha, postemergence, visual rating
[6] = postemergence, visual rating, 13 to 15 days
[7] = Postemergence, 62 g ai/ha, 13 to 15 days

## Cc1cnc(Oc2cccc(C#N)c2-n2cc(C(F)(F)F)cn2)nc1 [Compound 180]
Pigweed [1]
  Pigweed plant response rating: 100
  Plant response rating, Pigweed: 100
Barnyardgrass [2]; postemergence, visual rating
  Barnyardgrass plant response rating: 5
Barnyardgrass [2]; [5]
  Plant response rating, Barnyardgrass: 20
Barnyardgrass [2]; Postemergence, 62 g ai/ha
  Plant response rating, Barnyardgrass: 5
blackgrass; postemergence
  Plant response rating (0 to 100), Blackgrass: 0
blackgrass; [6]
  Blackgrass plant response rating: 10
blackgrass; [5]
  Plant response rating, Blackgrass: 30
blackgrass; Postemergence, 62 g ai/ha
  Plant response rating, Blackgrass: 5
galium; postemergence
  Plant response rating (0 to 100), Galium: 50
galium; [6]
  Galium plant response rating: 55
galium; [5]
  Plant response rating, Galium: 90
galium; Postemergence, 62 g ai/ha
  Plant response rating, Galium: 60
johnsongrass; postemergence
  Plant response rating (0 to 100), Johnsongrass: 0
johnsongrass; [6]
  Johnsongrass plant response rating: 0
johnsongrass; [5]
  Plant response rating, Johnsongrass: 5
johnsongrass; Postemergence, 62 g ai/ha
  Plant response rating, Johnsongrass: 0
Oilseed rape; postemergence
  Plant response rating (0 to 100), Oilseed Rape: 15
Oilseed rape; [6]
  Oilseed Rape plant response rating: 25
Oilseed rape; [5]
  Plant response rating, Oilseed Rape: 55
Oilseed rape; Postemergence, 62 g ai/ha
  Plant response rating, Oilseed Rape: 40
Wild oat; postemergence
  Plant response rating (0 to 100), Oat, Wild: 5
Wild oat; [6]
  Oat, Wild plant response rating: 10
Wild oat; [5]
  Plant response rating, Oat, Wild: 30
Wild oat; Postemergence, 62 g ai/ha
  Plant response rating, Oat, Wild: 20
lambsquarters; postemergence
  Plant response rating (0 to 100), Lambsquarters: 35
lambsquarters; [6]
  Lambsquarters plant response rating: 55
lambsquarters; [5]
  Plant response rating, Lambsquarters: 85
lambsquarters; Postemergence, 62 g ai/ha
  Plant response rating, Lambsquarters: 75
waterhemp; postemergence
  Plant response rating (0 to 100), Waterhemp: 25
waterhemp; [6]
  Waterhemp plant response rating: 60
waterhemp; [5]
  Plant response rating, Waterhemp: 75
waterhemp; Postemergence, 62 g ai/ha
  Plant response rating, Waterhemp: 70
Giant foxtail
  Foxtail, Giant plant response rating (0 to 100 scale): 100
  Foxtail, Giant plant response rating: 100
Barnyardgrass [3]
  Barnyardgrass plant response rating (0 to 100 scale, 0 is no effect, 100 is complete control): 100
  Barnyardgrass plant response rating: 100
wheat
  Wheat plant response rating (0 to 100 scale): 20
  Wheat plant response rating: 80
velvetleaf
  Velvetleaf plant response rating: 100
  Plant response rating, Velvetleaf: 100
Large (Lg) crabgrass; postemergence
  Plant response rating (0 to 100), Crabgrass, Large: 5
Large (Lg) crabgrass; [6]
  Crabgrass, Large plant response rating: 5
Large (Lg) crabgrass; [5]
  Plant response rating, Crabgrass, Large: 35
Large (Lg) crabgrass; Postemergence, 62 g ai/ha
  Plant response rating, Crabgrass, Large: 5
Pigweed [4]
  Pigweed plant response rating (0 to 100 scale): 100
  Pigweed plant response rating: 100

## Fc1cnc(Oc2ccccc2-n2cc(C(F)F)cn2)nc1 [Compound 228]
Pigweed [1]
  Pigweed plant response rating: 100
  Plant response rating, Pigweed: 100
Barnyardgrass [2]; 16 g ai/ha, postemergence, 0 is no effect, 100 is complete control
  Plant response rating (0 to 100), Barnyardgrass: 0
Barnyardgrass [2]; postemergence, visual rating
  Barnyardgrass plant response rating: 0
Barnyardgrass [2]; [5]
  Plant response rating, Barnyardgrass: 5
Barnyardgrass [2]; Postemergence, 62 g ai/ha
  Plant response rating, Barnyardgrass: 5
blackgrass; postemergence
  Plant response rating (0 to 100), Blackgrass: 0
blackgrass; [6]
  Blackgrass plant response rating: 0
blackgrass; [5]
  Plant response rating, Blackgrass: 40
blackgrass; [7]
  Plant response rating, Blackgrass: 0
galium; postemergence
  Plant response rating (0 to 100), Galium: 50
galium; [6]
  Galium plant response rating: 50
galium; [5]
  Plant response rating, Galium: 80
galium; [7]
  Plant response rating, Galium: 70
johnsongrass; postemergence
  Plant response rating (0 to 100), Johnsongrass: 5
johnsongrass; [6]
  Johnsongrass plant response rating: 0
johnsongrass; [5]
  Plant response rating, Johnsongrass: 10
johnsongrass; [7]
  Plant response rating, Johnsongrass: 5
Oilseed rape; postemergence
  Plant response rating (0 to 100), Oilseed Rape: 40
Oilseed rape; [6]
  Oilseed Rape plant response rating: 60
Oilseed rape; [5]
  Plant response rating, Oilseed Rape: 85
Oilseed rape; [7]
  Plant response rating, Oilseed Rape: 60
Wild oat; postemergence
  Plant response rating (0 to 100), Oat, Wild: 0
Wild oat; [6]
  Oat, Wild plant response rating: 0
Wild oat; [5]
  Plant response rating, Oat, Wild: 5
Wild oat; [7]
  Plant response rating, Oat, Wild: 0
lambsquarters; postemergence
  Plant response rating (0 to 100), Lambsquarters: 25
lambsquarters; [6]
  Lambsquarters plant response rating: 40
lambsquarters; [5]
  Plant response rating, Lambsquarters: 65
lambsquarters; [7]
  Plant response rating, Lambsquarters: 75
waterhemp; postemergence
  Plant response rating (0 to 100), Waterhemp: 15
waterhemp; [6]
  Waterhemp plant response rating: 45
waterhemp; [5]
  Plant response rating, Waterhemp: 75
waterhemp; [7]
  Plant response rating, Waterhemp: 60
Giant foxtail
  Foxtail, Giant plant response rating (0 to 100 scale): 90
  Foxtail, Giant plant response rating: 100
Barnyardgrass [3]
  Barnyardgrass plant response rating (0 to 100 scale, 0 is no effect, 100 is complete control): 20
  Barnyardgrass plant response rating: 100
wheat
  Wheat plant response rating (0 to 100 scale): 0
  Wheat plant response rating: 0
velvetleaf
  Velvetleaf plant response rating: 100
  Plant response rating, Velvetleaf: 100
Large (Lg) crabgrass; postemergence
  Plant response rating (0 to 100), Crabgrass, Large: 0
Large (Lg) crabgrass; [6]
  Crabgrass, Large plant response rating: 5
Large (Lg) crabgrass; [5]
  Plant response rating, Crabgrass, Large: 5
Large (Lg) crabgrass; [7]
  Plant response rating, Crabgrass, Large: 5
Pigweed [4]
  Pigweed plant response rating (0 to 100 scale): 0
  Pigweed plant response rating: 0

Source: patent publication US9695155B2, “Herbicidal substituted pyrimidinyloxy benzene compounds” (E. I. DU PONT DE NEMOURS AND COMPANY, priority 2013, dated 2017)
